Consider two compounds from patent US12187696B2, “Urea motif containing compounds and derivatives thereof as antibacterial drugs” (Technische Universität München, priority 2016, dated 2025).

≈ marks a conversion by molar mass, not a printed value. Entries after “also recorded” stand apart in the source; their conditions may differ. Bounds are passed on as bounds.

Series [1] concerns Staphylococcus aureus USA300. The series is described as follows: Minimal inhibitory concentration (MIC) assay. In kind it is cell-based. The conditions noted are these: B medium.
In a further series the test system is S. aureus Mu50. Description: Minimal inhibitory concentration (MIC) assay. In kind it is cell-based. The conditions noted are these: Staphylococcus aureus, B medium.
The test system of series [2] is Staphylococcus aureus IS050611. The series is described as follows: Minimal inhibitory concentration (MIC) assay. It is filed as cell-based. The conditions noted are these: Staphylococcus aureus IS050611 (clinical isolate); B medium.
Series [3] relates to Staphylococcus aureus VA418879. Description: Minimal inhibitory concentration (MIC) assay. It is filed as cell-based. As to conditions: Staphylococcus aureus VA418879 (clinical isolate); B medium.
The test system of series [4] is Mycobacterium tuberculosis H37Rv. The series is described as follows: Minimal inhibitory concentration (MIC) assay. In kind it is cell-based. As to conditions: 7H9 medium.
Another series concerns Enterobacter aerogenes. The series is described as follows: Minimal inhibitory concentration (MIC) assay. It is filed as cell-based. As to conditions: Klebsiella aerogenes, B medium.
For series [5], the system named is A549, HeLa, HepG2 and NIH/3T3 cells. Description: Cytotoxicity assay (MTT). In kind it is cell-based, human. As to conditions: 24 h incubation, various cell lines. On the procedure: The MTT assay was performed in 96 well plates. A549, HeLa and HepG2 cells were seeded with 4000 cells/well, whereas NIH/3T3 cells were seeded with 2000 cells/well. Cells were grown to 30-40% confluence at 37° C. and 5% CO2 over a time span of 24 h. The medium was removed and 100 μL medium/well containing varying concentrations of the respective compound and a final DMSO concentration of 0.1% were added to the cells in triplicates and incubated at 37° C. and 5% CO2 for 24 h. 20 μL Thiazolyl blue tetrazolium bromide (5 mg/mL in PBS, Sigma Aldrich) were added to the cells and incubated at 37° C. and 5% CO2 for 4 h until complete consumption was observed. After removal of the medium, the resulting formazan was dissolved in 200 μL DMSO. Optical density was measured at 570 nm (562 nm) and background subtracted at 630 nm (620 nm) by a TECAN Infinite M200 Pro.

In series [6] the test system is S. aureus DSM 4910 (NCTC 8325) biofilm. The series is described as follows: Minimum biofilm eradication concentration (MBEC) assay. It is filed as cell-based. On the procedure:
To each well of a flat-bottomed 96-well plate (BD Biosciences, BD 351172) 200 μL of overnight culture of bacteria diluted 1:100 in media is added. Plates are incubated for 24 hours at 37° C. to establish biofilms. After 24 hours, the wells are carefully emptied by inverting the plate and gently shaking. A pre-mixed solution of media and compound stock solution is added to each well and plates are incubated at 37° C. […] 100 μL of supernatant from each well are transferred to a fresh 96-well flat bottomed plate and the OD at 595 nm is measured using a plate reader (POLARstar Omega, BMG Labtech). Concentrations of compound yielding a regrown OD of less than 0.1 correspond to the MBEC. Six replicates are completed for each concentration of compound as well as positive and negative controls. […] DMSO was used as negative control compound, Oxacillin was used as positive control compound. Levels of crystal violet retained were measured spectrophotometrically at an OD of 595 nm. Concentrations of compound yielding a regrown OD of less than 0.1 correspond to the MBEC. Six replicates are completed for each concentration of compound as well as controls. […] Levels of crystal violet retained were measured spectrophotometrically at an OD of 595 nm. […]

The next series concerns S. aureus. The series is described as follows: Murine bloodstream infection model. As to conditions: S. aureus-infected mice, 20 mg/kg, compared to vehicle control. It is filed as in vivo. As to the method: Bacterial loads in the heart (left) and liver (right) of S. aureus-infected mice treated with 20 mg/kg of PK/[…]-1-150 (squares) or vehicle alone (circles). Each symbol represents an individual mouse. Compilation data from three independent experiments are presented. N=14 for vehicle and PK/[…]-1-150. Horizontal lines represent the mean values. **, p<0.01.

In another series the test system is MRSA ATCC 33591. The series is described as follows: Neutropenic murine thigh model. As to conditions: 20 mg/kg orally 30 min, 4 and 8 h after inoculation; vs sham-treated mice. In kind it is in vivo, S. aureus. On the procedure: PK/X17-1-150 (20 mg/kg) and the corresponding vehicle were administered orally after 30 min, 4 and 8 h after bacterial inoculation, whereas levofloxacin (5 mg/kg) and the corresponding vehicle were administered intraperitoneally after 2, 6 and 10 h after bacterial inoculation. N=6 for vehicle i.p., levofloxacin i.p. and for PK/X17-1-150; n=5 for vehicle p.o. Data are expressed as mean values±SD. **, p<0.01; ***, p<0.001.

In series [7] the test system is S. aureus NCTC 8325 persister cells. The series is described as follows: Persister cell assay I. In kind it is cell-based. As to conditions: gentamicin-selected persisters in PBS; 70 h; 2.4 μM PK/X17-1-150, 24 μM sorafenib, 5 μg/mL ciprofloxacin.
Series [8] has as its target T1, Signal peptidase IB enzyme (SpsB) (Staphylococcus aureus, UniProt P0A070).
T1 sequence (P0A070 1-191): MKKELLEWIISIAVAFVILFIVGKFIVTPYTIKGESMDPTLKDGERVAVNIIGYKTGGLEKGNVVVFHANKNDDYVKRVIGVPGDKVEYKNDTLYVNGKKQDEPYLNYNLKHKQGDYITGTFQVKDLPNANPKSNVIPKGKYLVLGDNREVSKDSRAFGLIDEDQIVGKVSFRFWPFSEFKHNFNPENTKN
The series is described as follows: SpsB FRET peptidase assay with membrane fraction. The conditions noted are these: for activity of SpsB: 100 μM compound, SpsB-containing membrane fraction of S. aureus, DMSO treated control 1.8 A·U/s; for SpsB peptidase activity (in words): FRET assay, 100 μM, compared to DMSO treated control.

As a reminder, the MIC is the least concentration at which growth counts as inhibited. A high value points to a less susceptible organism. Regarding `O=C(Nc1ccc2c(c1)OC(F)(F)O2)Nc1ccc(Cl)c(C(F)(F)F)c1` [Example 4, 1-(4-Chloro-3-(trifluoromethyl)phenyl)-3-(2,2-difluorobenzo[d][1,3]dioxol-5-yl)urea], the MIC in series [1] was 0.3 µM (≈ 0.118 µg/mL); in the series on S. aureus Mu50, 0.3 µM (≈ 0.118 µg/mL); in series [2], 0.3 µM (≈ 0.118 µg/mL); in [3], 0.3 µM (≈ 0.118 µg/mL); in series [4], 2 µM (≈ 0.789 µg/mL); in the series with Enterobacter aerogenes, more than 100 µM. For the same compound, in [5], the “cytotoxicity (MTT)” value is recorded as “at concentrations higher compared to the antibacterial MICs”. The biofilm eradication effect result in series [6] (S. aureus DSM 4910, after 20 h of compound treatment) is “strongest effect”; in series [6] (S. aureus DSM 4910, after 70 h of compound treatment) it was “most potent effects”. For the same compound, in the series with S. aureus, the “reduction of bacterial load in heart” value worked out at 2 log cfu. Further, the “reduction of bacterial load in liver” value in the series with S. aureus turned out to be 2 log cfu. In the series on MRSA ATCC 33591, the “thigh bacterial load reduction” value amounted to 1 log10 cfu/g thigh. Also, the “viable persister cells (CFU/mL) vs DMSO control” value in [7] is “significant reduction of viable cells”. For the same compound, the “activity of SpsB” value in series [8] came out at 4.3 A·U/s. Besides, the “SpsB peptidase activity (in words)” value in series [8] (listed as PK/X17-1-150) was “increased SpsB peptidase activity; also recorded: stimulates peptidase activity”.
Regarding `CNC(=O)c1cc(Oc2ccc(NC(=O)Nc3ccc(Cl)c(C(F)(F)F)c3)cc2)ccn1` [Sorafenib, reference compound], the MIC in series [1] is 3 µM (≈ 1.39 µg/mL); in the series on S. aureus Mu50, 3 µM (≈ 1.39 µg/mL); in [2] it was 3 µM (≈ 1.39 µg/mL); in series [3], 5 µM (≈ 2.32 µg/mL); in [4], 25 µM (≈ 11.6 µg/mL); with Enterobacter aerogenes, more than 100 µM. Also, in series [7], the “viable persister cells (CFU/mL) vs DMSO control” value was “significant reduction of viable cells”. Further, the “activity of SpsB” value in series [8] is on record as 2.6 A·U/s. Further, the “SpsB peptidase activity (in words)” value in [8] is given as “increased SpsB peptidase activity; also recorded: stimulates peptidase activity”.
